{"source": "paper PMC4441592", "about": "(Neuron, 2015)", "key": {"[1]": {"tested_on": "CNS molecular targets", "assay": "NIMH Psychoactive Drug Screening Program profiling", "settings": "NIMH PDSP; except low KOR binding affinity"}, "[2]": {"tested_on": "SIM1-Cre mice, PVH^SIM1 neurons", "assay": "Feeding study in SIM1-cre mice", "format": "in vivo", "settings": "wild type control mice injected with cre-dependent KORD virus; 10 mg/kg s.c."}, "[3]": {"tested_on": "C57BL/6J mice", "settings": "mouse, in vivo"}, "[4]": {"biological_target": "KORD (D138N hKOR) (Homo sapiens, UniProt P41145, D138N)", "sequence (P41145 whole entry D138N)": "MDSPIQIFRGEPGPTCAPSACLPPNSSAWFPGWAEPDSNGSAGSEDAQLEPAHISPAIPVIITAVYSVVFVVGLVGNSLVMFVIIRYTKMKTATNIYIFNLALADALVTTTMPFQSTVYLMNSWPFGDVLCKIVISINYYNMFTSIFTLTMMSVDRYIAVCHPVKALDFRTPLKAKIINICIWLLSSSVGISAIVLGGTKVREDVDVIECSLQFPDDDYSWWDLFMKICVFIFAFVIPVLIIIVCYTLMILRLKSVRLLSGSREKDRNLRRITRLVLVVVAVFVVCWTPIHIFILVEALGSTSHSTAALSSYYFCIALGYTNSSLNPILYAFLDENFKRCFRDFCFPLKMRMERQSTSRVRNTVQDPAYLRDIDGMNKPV", "assay": "cell-based"}, "[5]": {"tested_on": "mice", "settings": "mouse, in vivo"}, "[6]": {"tested_on": "VTA/SN neurons", "assay": "Miniature IPSC recording in VTA/SN neurons", "format": "cell-based", "settings": "naive mice; 100 nM"}, "[7]": {"biological_target": "KOR (Homo sapiens, UniProt P41145)", "sequence (P41145 whole entry)": "as the sequence (P41145 whole entry D138N) above, with N138D counted along it", "assay": "cell-based"}, "[8]": {"tested_on": "mice", "settings": "mouse, in vivo", "remark": "listed apart in the source"}, "[9]": {"tested_on": "muscarinic receptor- based DREADDs (Gq, Gi and Gs DREADDs)", "assay": "Activity at muscarinic receptor-based DREADDs", "format": "cell-based"}, "[10]": {"biological_target": "E297A mutant (Homo sapiens, UniProt P41145, E297A)", "sequence (P41145 whole entry E297A)": "as the sequence (P41145 whole entry D138N) above, with N138D, E297A counted along it", "assay": "Affinity and agonist potency at E297A KOR mutant", "format": "cell-based", "settings": "E297A mutant alone"}, "[11]": {"tested_on": "VGAT-ires-Cre mice, VTA/SN^VGAT neurons", "assay": "Locomotor activity", "format": "in vivo", "settings": "mice expressing both KORD and hM3Dq in VTA/SN^VGAT neurons; 10.0 mg/kg; different testing sessions"}}, "data": [{"smiles": "COC(=O)[C@@H]1C[C@H](O)C(=O)[C@H]2[C@@]1(C)CC[C@H]1C(=O)O[C@H](c3ccoc3)C[C@]21C", "note": "[Salvinorin B, salvinorin B]", "values": [{"measurement": "activity against a large number of CNS molecular targets", "setting": "[1]", "result": "failed to show any activity"}, {"measurement": "feeding effect", "setting": "[2]", "result": "no feeding effects"}, {"measurement": "brain stimulation reward thresholds (ICSS)", "setting": "[3]", "result": "failed to significantly elevate thresholds"}, {"measurement": "Emax", "setting": "[4]", "result": 94, "unit": "%"}, {"measurement": "Emax (%)", "setting": "[4]", "result": 100, "unit": "%"}, {"measurement": "hot plate test effect (analgesia)", "setting": "[5]", "result": "did not alter performance relative to controls"}, {"measurement": "mIPSCs (frequency and amplitude)", "setting": "[6]", "result": "no effect"}, {"measurement": "Emax", "setting": "[7]", "result": 80, "unit": "%"}, {"measurement": "Emax (%)", "setting": "[7]", "result": 100, "unit": "%"}, {"measurement": "rotarod test effect (impairment of motor performance)", "setting": "[8]", "result": "did not alter performance relative to controls"}, {"measurement": "activity at muscarinic receptor-based DREADDs", "setting": "[9]", "result": "inactive"}, {"measurement": "effect of E297A mutation on agonist potency", "setting": "[10]", "result": "no effect on SALB agonist potency"}, {"measurement": "locomotor activity vs vehicle", "setting": "[11]", "result": "enhanced locomotor activity"}]}]}
